{
  "source": "patent US20240245603A1",
  "about": "“HIGH LOADING ORAL FILM FORMULATION” (INTELGENX CORP., priority 2021, published 2024)",
  "key": {"[1]": {"assay": "Solubility studies of Maropitant in solvents and solubility enhancers (visual inspection)", "format": "physicochemical", "procedure": "The following solubility studies were performed with Maropitant drug substance in various solvents and solubility enhancers. […] During solubility studies, the API was solubilized stepwise, in a series of permitted solvent (or a combination of solvent) with and without solubility enhancer. The solvent system was based on methanol, ethanol, isopropyl alcohol (IPA), acetone, methyl ethyl ketone (MEK), and water. Solubility enhancers included Maiscine CC (MGO) (HLB 1), medium chain triglyceride (MCT) oil (HLB 1), Labrafil 1944 cs (HLB 9), Labrafil 2125CS (HLB 9), Glycerine, Tween 20 (HLB 16,7), PEG 300, Propylene glycol, SLS (HLB 40). The resulting mixture was visually inspected to evaluate solubilization. The main equipment used were glass bottles, magnetic stir bars, stirrer plate, and sonicator."}, "[2]": {"assay": "Permeability of Maropitant through artificial membranes, Franz cell model", "format": "in vitro ADME", "procedure": "Numerous experiments were performed to improve the permeability of Maropitant through artificial membranes using the Franz cell model. Initially, solutions and suspensions of Maropitant and different acids at different ratios were prepared.\nBased on the results obtained with the solution/suspension of Maropitant at different pH, Maropitant oral films with and without citric acid were prepared."}, "[3]": {"conditions": "cited from earlier work"}},
  "data": [
    {"smiles": "COc1ccc(C(C)(C)C)cc1CN[C@H]1C2CCN(CC2)[C@H]1C(c1ccccc1)c1ccccc1", "note": "[Maropitant]", "values": [
      {"measurement": "Solubility", "setting": "[1]; Test 1, media Methanol", "value": "Up to 30 mg/1 g of solvent"},
      {"measurement": "Solubility", "setting": "[1]; Test 2, media Ethanol", "value": "Up to 15 mg/1 g of solvent"},
      {"measurement": "Solubility", "setting": "[1]; Test 3, media Isopropanol", "value": "insoluble"},
      {"measurement": "Solubility", "setting": "[1]; Test 4, media Acetone", "value": "Up to 120 mg/1 g of solvent"},
      {"measurement": "Solubility", "setting": "[1]; Test 5, media MEK", "value": "Up to 150 mg/1 g of solvent"},
      {"measurement": "Solubility", "setting": "[1]; Test 6, MEK:Maiscine CC 40:2", "value": "Up to 180 mg/1 g of solvent"},
      {"measurement": "Solubility", "setting": "[1]; Test 7, MEK:Maiscine CC 40:3", "value": "Up to 220 mg/1 g of solvent"},
      {"measurement": "Solubility", "setting": "[1]; Test 8, MEK:MCT 40:2", "value": "Up to 220 mg/1 g of solvent"},
      {"measurement": "Solubility", "setting": "[1]; Test 9, MEK:MCT 40:3", "value": "Up to 240 mg/1 g of solvent"},
      {"measurement": "Solubility", "setting": "[1]; Test 10, MEK:PEG 300 40:2", "value": "Up to 180 mg/1 g of solvent"},
      {"measurement": "Solubility", "setting": "[1]; Test 11, MEK:MCT:PEG 300 40:3:2", "value": "Up to 240 mg/1 g of solvent"},
      {"measurement": "Solubility", "setting": "[1]; Test 12, MEK:Labrafil 1944CS 40:2", "value": "Up to 220 mg/1 g of solvent"},
      {"measurement": "Solubility", "setting": "[1]; Test 13, MEK:Labrafil 1944CS:MCT 40:3:2", "value": "Up to 220 mg/1 g of solvent"},
      {"measurement": "Solubility", "setting": "[1]; Test 14, MEK:Labrafil 1944CS:PEG 300 40:3:2", "value": "Up to 220 mg/1 g of solvent"},
      {"measurement": "Solubility", "setting": "[1]; Test 15, MEK:Glycerine 40:2", "value": "Up to 135 mg/1 g of solvent"},
      {"measurement": "Solubility", "setting": "[1]; Test 16, MEK:Tween 20 40:2", "value": "Up to 180 mg/1 g of solvent"},
      {"measurement": "Solubility", "setting": "[1]; Test 17, MEK:Methanol 40:10", "value": "Up to 155 mg/1 g of solvent"},
      {"measurement": "Solubility", "setting": "[1]; Test 18, MEK:Methanol:MCT 40:10:3", "value": "Up to 235 mg/1 g of solvent"},
      {"measurement": "Solubility", "setting": "[1]; Test 19, MEK:Water 40:4.5", "value": "insoluble"},
      {"measurement": "Solubility", "setting": "[1]; Test 20, MEK:Methanol:Labrafil 2125CCS:Tween 20 40:10:4:4", "value": "Up to 317 mg/1 g of solvent"},
      {"measurement": "permeation of Maropitant solutions/suspensions at different pH", "setting": "[2]; Maropitant/citric acid pH 4.24, 5.22, 6.22 and phosphate citrate buffer pH 8.0, FIG. 9", "value": "acidic environment promotes Maropitant permeation"},
      {"measurement": "Maropitant permeability of films with versus without citric acid", "setting": "[2]; oral films with and without citric acid", "value": "improved"}
    ]},
    {"smiles": "CN1CC(=O)N2[C@H](c3ccc4c(c3)OCO4)c3[nH]c4ccccc4c3C[C@@H]2C1=O", "note": "[Tadalafil]", "values": [
      {"measurement": "solubility in water", "setting": "[3]", "value": "practically insoluble"}
    ]}
  ]
}
